Results reported in patent publication US11109593B2, “Isoxazolin-5-one derivative and herbicide containing same as active ingredient” (HOKKO CHEMICAL INDUSTRY CO., LTD., priority 2017, dated 2021).

Each compound was assayed on Echinochloa crus-galli (assay: Test Example 1: herbicidal effect test by treatment of rice paddy soil (immediately after seeding)). Conditions: 120 g/10a active ingredient, dry weight vs untreated area, 14 days after treatment.
Format: in vivo
Procedure, shortened: (§1)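 Application occurs immediately after seeding, with diluted emulsion added to paddy water (about 3 cm deep) over puddled, fertilized soil at 120 g active ingredient per 10 ares. Herbicidal rate is calculated from mean dry weight against untreated controls 14 days later.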

Row | SMILES | Herbicidal rate (%) Echinochloa crus-galli
1 | Cc1c(Cc2ccccc2NS(=O)(=O)C(F)(F)F)c(=O)on1C(C)Cc1ccccc1 (stereo not drawn) [Compound 1-218] | 100%
2 | CCCC(C)n1oc(=O)c(Cc2ccccc2N(C(=O)CC(C)C)S(=O)(=O)C(F)(F)F)c1C (stereo not drawn) [Compound 1-356] | 100%
3 | CCC(CC)Cn1oc(=O)c(Cc2ccccc2NS(=O)(=O)C(F)(F)F)c1C [Compound 1-113] | 100%

The compounds below were run on Scirpus juncoides in the same assay as above. Conditions: 120 g/10a active ingredient, dry weight vs untreated area, 14 days after treatment.
Format: in vivo
Procedure, shortened: as §1

Row | SMILES | Herbicidal rate (%) Scirpus juncoides
4 | Cc1c(Cc2ccccc2NS(=O)(=O)C(F)(F)F)c(=O)on1C(C)Cc1ccccc1 (stereo not drawn) [Compound 1-218] | 90%
5 | CCCC(C)n1oc(=O)c(Cc2ccccc2N(C(=O)CC(C)C)S(=O)(=O)C(F)(F)F)c1C (stereo not drawn) [Compound 1-356] | 90%
6 | CCC(CC)Cn1oc(=O)c(Cc2ccccc2NS(=O)(=O)C(F)(F)F)c1C [Compound 1-113] | 100%

Each compound was assayed on broad leaf weeds (Lindernia pyxidaria and Monochoria vaginalis) in the same assay as above. Conditions: Lindernia pyxidaria, 120 g/10a active ingredient, dry weight vs untreated area, 14 days after treatment.
Format: in vivo
Procedure, shortened: as §1

Row | SMILES | Herbicidal rate (%) Lindernia pyxidaria
7 | Cc1c(Cc2ccccc2NS(=O)(=O)C(F)(F)F)c(=O)on1C(C)Cc1ccccc1 (stereo not drawn) [Compound 1-218] | 90%
8 | CCCC(C)n1oc(=O)c(Cc2ccccc2N(C(=O)CC(C)C)S(=O)(=O)C(F)(F)F)c1C (stereo not drawn) [Compound 1-356] | 90%
9 | CCC(CC)Cn1oc(=O)c(Cc2ccccc2NS(=O)(=O)C(F)(F)F)c1C [Compound 1-113] | 100%

Same assay, conditions: Monochoria vaginalis, 120 g/10a active ingredient, dry weight vs untreated area, 14 days after treatment

Row | SMILES | Herbicidal rate (%) Monochoria vaginalis
10 | Cc1c(Cc2ccccc2NS(=O)(=O)C(F)(F)F)c(=O)on1C(C)Cc1ccccc1 (stereo not drawn) [Compound 1-218] | 90%
11 | CCCC(C)n1oc(=O)c(Cc2ccccc2N(C(=O)CC(C)C)S(=O)(=O)C(F)(F)F)c1C (stereo not drawn) [Compound 1-356] | 60%
12 | CCC(CC)Cn1oc(=O)c(Cc2ccccc2NS(=O)(=O)C(F)(F)F)c1C [Compound 1-113] | 100%

These compounds were tested on Echinochloa crus-galli (assay: Test Example 2: herbicidal effect test by treatment during growing period in paddy rice cultivation (seven days after seeding)). Conditions: 120 g/10a active ingredient, assessed 14 days after treatment, dry weight vs untreated area.
Format: in vivo
Procedure, shortened: (§2)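 Seeds sown 0–1 cm deep in puddled, fertilised paddy soil with about 3 cm standing water in a glass greenhouse. Diluted emulsion dropped into the water seven days after seeding at 120 g active ingredient per 10 ares. Herbicidal rate (%) from mean dry weight vs untreated, duplicate, 14 days after treatment.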

Row | SMILES | Herbicidal rate (%) Echinochloa crus-galli
13 | Cc1c(Cc2ccccc2NS(=O)(=O)C(F)(F)F)c(=O)on1C(C)Cc1ccccc1 (stereo not drawn) [Compound 1-218] | 90%
14 | CCCC(C)n1oc(=O)c(Cc2ccccc2N(C(=O)CC(C)C)S(=O)(=O)C(F)(F)F)c1C (stereo not drawn) [Compound 1-356] | 100%
15 | CCC(CC)Cn1oc(=O)c(Cc2ccccc2NS(=O)(=O)C(F)(F)F)c1C [Compound 1-113] | 90%

What follows are compounds tested on Scirpus juncoides in the same assay as above. Conditions: 120 g/10a active ingredient, assessed 14 days after treatment, dry weight vs untreated area.
Format: in vivo
Procedure, shortened: as §2

Row | SMILES | Herbicidal rate (%) Scirpus juncoides
16 | Cc1c(Cc2ccccc2NS(=O)(=O)C(F)(F)F)c(=O)on1C(C)Cc1ccccc1 (stereo not drawn) [Compound 1-218] | 90%
17 | CCCC(C)n1oc(=O)c(Cc2ccccc2N(C(=O)CC(C)C)S(=O)(=O)C(F)(F)F)c1C (stereo not drawn) [Compound 1-356] | 90%
18 | CCC(CC)Cn1oc(=O)c(Cc2ccccc2NS(=O)(=O)C(F)(F)F)c1C [Compound 1-113] | 90%

What follows are compounds tested on broad leaf weeds (Lindernia pyxidaria and Monochoria vaginalis) in the same assay as above. Conditions: Lindernia pyxidaria, 120 g/10a active ingredient, assessed 14 days after treatment, dry weight vs untreated area.
Format: in vivo
Procedure, shortened: as §2

Row | SMILES | Herbicidal rate (%) Lindernia pyxidaria
19 | Cc1c(Cc2ccccc2NS(=O)(=O)C(F)(F)F)c(=O)on1C(C)Cc1ccccc1 (stereo not drawn) [Compound 1-218] | 40%
20 | CCCC(C)n1oc(=O)c(Cc2ccccc2N(C(=O)CC(C)C)S(=O)(=O)C(F)(F)F)c1C (stereo not drawn) [Compound 1-356] | 60%
21 | CCC(CC)Cn1oc(=O)c(Cc2ccccc2NS(=O)(=O)C(F)(F)F)c1C [Compound 1-113] | 60%

Same assay, conditions: Monochoria vaginalis, 120 g/10a active ingredient, assessed 14 days after treatment, dry weight vs untreated area

Row | SMILES | Herbicidal rate (%) Monochoria vaginalis
22 | Cc1c(Cc2ccccc2NS(=O)(=O)C(F)(F)F)c(=O)on1C(C)Cc1ccccc1 (stereo not drawn) [Compound 1-218] | 80%
23 | CCCC(C)n1oc(=O)c(Cc2ccccc2N(C(=O)CC(C)C)S(=O)(=O)C(F)(F)F)c1C (stereo not drawn) [Compound 1-356] | 70%
24 | CCC(CC)Cn1oc(=O)c(Cc2ccccc2NS(=O)(=O)C(F)(F)F)c1C [Compound 1-113] | 80%

What follows are compounds tested on Amaranthus viridis (assay: Test Example 3: herbicidal effect test by treatment of dry field farming soil (one day after seeding)). Conditions: 120 g/10a active ingredient, evaluated 14 days after treatment.
Format: in vivo
Procedure, shortened: (§3)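 Alluvial dry-field soil in pots, top 1 cm mixed with 20 seeds per weed species. One day after seeding, the water-diluted emulsion was sprayed onto the soil surface at 100 L per 10 ares (120 g active ingredient per 10 ares). Duplicate pots; herbicidal rate (%) from plant dry weight versus untreated, 14 days after treatment.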

Row | SMILES | herbicidal rate, Amaranthus viridis
25 | Cc1c(Cc2ccccc2NS(=O)(=O)C(F)(F)F)c(=O)on1C(C)Cc1ccccc1 (stereo not drawn) [Compound 1-218] | 40%
26 | CCCC(C)n1oc(=O)c(Cc2ccccc2N(C(=O)CC(C)C)S(=O)(=O)C(F)(F)F)c1C (stereo not drawn) [Compound 1-356] | 90%
27 | CCC(CC)Cn1oc(=O)c(Cc2ccccc2NS(=O)(=O)C(F)(F)F)c1C [Compound 1-113] | 80%

These compounds were tested on Chenopodium album in the same assay as above. Conditions: 120 g/10a active ingredient, evaluated 14 days after treatment.
Format: in vivo
Procedure, shortened: as §3

Row | SMILES | herbicidal rate, Chenopodium album
28 | Cc1c(Cc2ccccc2NS(=O)(=O)C(F)(F)F)c(=O)on1C(C)Cc1ccccc1 (stereo not drawn) [Compound 1-218] | 40%
29 | CCCC(C)n1oc(=O)c(Cc2ccccc2N(C(=O)CC(C)C)S(=O)(=O)C(F)(F)F)c1C (stereo not drawn) [Compound 1-356] | 60%
30 | CCC(CC)Cn1oc(=O)c(Cc2ccccc2NS(=O)(=O)C(F)(F)F)c1C [Compound 1-113] | 100%

Each compound was assayed on Echinochloa crus-galli in the same assay as above. Conditions: 120 g/10a active ingredient, evaluated 14 days after treatment.
Format: in vivo
Procedure, shortened: as §3

Row | SMILES | herbicidal rate, Echinochloa crus-galli
31 | Cc1c(Cc2ccccc2NS(=O)(=O)C(F)(F)F)c(=O)on1C(C)Cc1ccccc1 (stereo not drawn) [Compound 1-218] | 80%
32 | CCCC(C)n1oc(=O)c(Cc2ccccc2N(C(=O)CC(C)C)S(=O)(=O)C(F)(F)F)c1C (stereo not drawn) [Compound 1-356] | 90%
33 | CCC(CC)Cn1oc(=O)c(Cc2ccccc2NS(=O)(=O)C(F)(F)F)c1C [Compound 1-113] | 90%

What follows are compounds tested on southern crabgrass in the same assay as above. Conditions: 120 g/10a active ingredient, evaluated 14 days after treatment.
Format: in vivo
Procedure, shortened: as §3

Row | SMILES | herbicidal rate, southern crabgrass
34 | Cc1c(Cc2ccccc2NS(=O)(=O)C(F)(F)F)c(=O)on1C(C)Cc1ccccc1 (stereo not drawn) [Compound 1-218] | 40%
35 | CCCC(C)n1oc(=O)c(Cc2ccccc2N(C(=O)CC(C)C)S(=O)(=O)C(F)(F)F)c1C (stereo not drawn) [Compound 1-356] | 90%
36 | CCC(CC)Cn1oc(=O)c(Cc2ccccc2NS(=O)(=O)C(F)(F)F)c1C [Compound 1-113] | 90%

These compounds were tested on Amaranthus viridis (assay: Test Example 4: herbicidal effect test by treatment of leave and stem in dry field farming (seven days after seeding)). Conditions: 120 g/10a active ingredient; emulsion sprayed seven days after seeding; evaluated 14 days after treatment.
Format: in vivo
Procedure, shortened: (§4)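 Weeds were seeded at 20 seeds per species into the top 1 cm of alluvial upland soil in pots, then sprayed 7 days after seeding with water-diluted emulsifiable concentrate at 100 L/10 a, giving 120 g active ingredient/10 a. Duplicate pots; herbicidal rate (%) was 14 days post-treatment, from dry weight versus untreated.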

Row | SMILES | herbicidal effect (herbicidal rate), Amaranthus viridis
37 | Cc1c(Cc2ccccc2NS(=O)(=O)C(F)(F)F)c(=O)on1C(C)Cc1ccccc1 (stereo not drawn) [Compound 1-218] | 60%
38 | CCCC(C)n1oc(=O)c(Cc2ccccc2N(C(=O)CC(C)C)S(=O)(=O)C(F)(F)F)c1C (stereo not drawn) [Compound 1-356] | 60%
39 | CCC(CC)Cn1oc(=O)c(Cc2ccccc2NS(=O)(=O)C(F)(F)F)c1C [Compound 1-113] | 60%

The compounds below were run on Chenopodium album in the same assay as above. Conditions: 120 g/10a active ingredient; emulsion sprayed seven days after seeding; evaluated 14 days after treatment.
Format: in vivo
Procedure, shortened: as §4

Row | SMILES | herbicidal effect (herbicidal rate), Chenopodium album
40 | Cc1c(Cc2ccccc2NS(=O)(=O)C(F)(F)F)c(=O)on1C(C)Cc1ccccc1 (stereo not drawn) [Compound 1-218] | 40%
41 | CCCC(C)n1oc(=O)c(Cc2ccccc2N(C(=O)CC(C)C)S(=O)(=O)C(F)(F)F)c1C (stereo not drawn) [Compound 1-356] | 60%
42 | CCC(CC)Cn1oc(=O)c(Cc2ccccc2NS(=O)(=O)C(F)(F)F)c1C [Compound 1-113] | 40%

What follows are compounds tested on Echinochloa crus-galli in the same assay as above. Conditions: 120 g/10a active ingredient; emulsion sprayed seven days after seeding; evaluated 14 days after treatment.
Format: in vivo
Procedure, shortened: as §4

Row | SMILES | herbicidal effect (herbicidal rate), Echinochloa crus-galli
43 | Cc1c(Cc2ccccc2NS(=O)(=O)C(F)(F)F)c(=O)on1C(C)Cc1ccccc1 (stereo not drawn) [Compound 1-218] | 90%
44 | CCCC(C)n1oc(=O)c(Cc2ccccc2N(C(=O)CC(C)C)S(=O)(=O)C(F)(F)F)c1C (stereo not drawn) [Compound 1-356] | 90%
45 | CCC(CC)Cn1oc(=O)c(Cc2ccccc2NS(=O)(=O)C(F)(F)F)c1C [Compound 1-113] | 80%

The compounds below were run on southern crabgrass in the same assay as above. Conditions: 120 g/10a active ingredient; emulsion sprayed seven days after seeding; evaluated 14 days after treatment.
Format: in vivo
Procedure, shortened: as §4

Row | SMILES | herbicidal effect (herbicidal rate), southern crabgrass
46 | Cc1c(Cc2ccccc2NS(=O)(=O)C(F)(F)F)c(=O)on1C(C)Cc1ccccc1 (stereo not drawn) [Compound 1-218] | 40%
47 | CCCC(C)n1oc(=O)c(Cc2ccccc2N(C(=O)CC(C)C)S(=O)(=O)C(F)(F)F)c1C (stereo not drawn) [Compound 1-356] | 80%
48 | CCC(CC)Cn1oc(=O)c(Cc2ccccc2NS(=O)(=O)C(F)(F)F)c1C [Compound 1-113] | 60%
